Laboratory results as given in patent publication US20060142194A1, “Methods and compounds for treating brain amyloidosis” (Evotec NeuroSciences GmbH, priority 2000, published 2006).
Entries after “also recorded” stand apart in the source; their conditions may differ.

Legend:
NL-1 (neprilysin like 1) = biological target: T1, NL-1 (neprilysin like 1) (Mus musculus, UniProt Q9JLI3); settings: cited from earlier work
T1 sequence (Q9JLI3 63-765): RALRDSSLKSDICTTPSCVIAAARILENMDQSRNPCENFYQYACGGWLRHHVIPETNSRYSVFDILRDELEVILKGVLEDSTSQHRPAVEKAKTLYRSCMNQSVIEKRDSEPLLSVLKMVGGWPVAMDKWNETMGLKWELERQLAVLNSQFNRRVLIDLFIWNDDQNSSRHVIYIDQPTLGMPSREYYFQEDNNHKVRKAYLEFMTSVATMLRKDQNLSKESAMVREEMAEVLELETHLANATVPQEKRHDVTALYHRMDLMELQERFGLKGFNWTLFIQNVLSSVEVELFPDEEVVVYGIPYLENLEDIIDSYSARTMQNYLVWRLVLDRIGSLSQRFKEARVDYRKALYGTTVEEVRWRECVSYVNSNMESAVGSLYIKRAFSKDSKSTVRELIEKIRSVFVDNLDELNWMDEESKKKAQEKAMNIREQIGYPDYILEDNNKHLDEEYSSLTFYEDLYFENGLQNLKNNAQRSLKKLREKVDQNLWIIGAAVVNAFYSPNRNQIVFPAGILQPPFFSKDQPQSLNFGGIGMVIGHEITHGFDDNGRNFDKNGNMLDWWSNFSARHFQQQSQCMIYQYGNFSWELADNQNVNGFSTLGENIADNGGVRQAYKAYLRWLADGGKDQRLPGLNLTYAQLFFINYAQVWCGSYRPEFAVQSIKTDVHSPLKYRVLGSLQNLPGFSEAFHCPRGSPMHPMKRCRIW

NEP [1] = test: NEP immunohistochemistry of brain sections after intracranial Aβ42 injection; type: in vivo; settings: single intracranial injection of 1 μl aggregated Aβ42 (350 μM); SwAPP and wild-type mice; 11 and 20 weeks after injection; vs PBS
Experimental: (§1) Animals: Transgenic mice expressing the AD-causing Swedish double mutant of the human APP gene were generated and bred as described previously (Hsiao K. K. et al., Neuron 15, 1203-1218, 1995; Hsiao K. et al., Science 274, 99-102, 1996). All mice used in this study were the progeny of a single SwAPP male, crossbred to wild-type littermates. The colony was housed under a light cycle of 12 hours with dry food and water ad libitum. The presence of the transgene was determined by PCR on genomic DNA isolated from tail biopsies using specific primers GTGGATAACCCCTCCCCCAGCCTAGACCA and CTGACCACTCGACCAGGTTCTGGGT to the transgene. […] After the injection, the needle was left in place for 1 more minute, and then was slowly withdrawn over a period of 1 minute.
Preparation of tissue: For combined Western blot analyses and immunohistochemistry, mice were deeply anesthetized and were perfused transcardially using ice-cold PBS (pH 7.4). […]
In contrast, in SwAPP mice as well as in wild-type littermates injected with PBS vehicle alone, neuronal NEP staining was weak and diffuse (FIG. 2 a-c, g-i). […] To confirm this finding, we next analysed brain proteins prepared from Aβ42-injected mice extracts by Western blotting.

NEP [2] = test: Western blot and densitometry of NEP in brain extracts after Aβ42 injection; type: in vivo; settings: as early as one week after Aβ42 injection; SwAPP and wild-type mice; vs uninjected or PBS-injected
Experimental: Actin was used to control for equal loading (a). […] The intensity of each NEP and actin bands was measured using the NIH-Image software. […] Data represent means of each group+SEM * p≦0.05, ** p≦0.01, Mann-Whitney U test. n=3 for each group.
All mice used in this study were the progeny of a single SwAPP male, crossbred to wild-type littermates. The colony was housed under a light cycle of 12 hours with dry food and water ad libitum. […] After the injection, the needle was left in place for 1 more minute, and then was slowly withdrawn over a period of 1 minute.
Western-blot analysis: Protein concentration of brain extracts were determined with the Bredford protein assay and equal amounts of protein (60 μg) were loaded to each lane of 8% acrylamid gels in Laemmli buffer. After electrophoresis proteins were blotted on nitrocellulose membranes (Amersham). Membranes were probed for NEP using the monoclonal antibody 56C6 at a dilution of 1:50. […]

transgenic SwAPP mice [3] = test: Brain amyloid plaque staining and counts (thioflavin S, 4G8) in SwAPP mice; type: in vivo
Experimental: as §1, with “minute. […]” for “minute.”
(§2) To be sure that no amyloid plaques were missed in the mice, every 50th coronal section (250 μm apart) of all mice was stained, beginning with a random section of the olfactory bulbs. […] Existing plaques in 3 representative sections of each mouse were counted. […] To determine whether the reduced amyloid pathology was associated with reduced concentrations of transgenic Aβ, human Aβ was measured by a sandwich ELISA that specifically recognized intact human Aβ (Nitsch, R. M. et al., Ann. Neurol. in Press). As expected, no human Aβ was detected by ELISA in wild-type mice.

human Aβ = test: Aβ sandwich ELISA on formic acid extracted brain tissue; type: in vivo; settings: SwAPP mice, 20 weeks after injection, n=4; vs untreated SwAPP littermates; p≦0.05
Experimental: (§3) Preparation of tissue: For combined Western blot analyses and immunohistochemistry, mice were deeply anesthetized and were perfused transcardially using ice-cold PBS (pH 7.4). Frontal cortices of both hemispheres were homogenized in lysis buffer containing 1% Triton X-100, 10 mM Tris, 250 mM sucrose, and 1× complete proteinase inhibitor cocktail, pH=8 (Roche, Switzerland). The remaining brain tissue was fixed over night in 4% paraformaldehyde solution at 4° C. and washed several times in PBS and embedded in paraffin for immuno-histochemistry. For combined immunocytochemistry and Aβ-ELISA, mice were perfused with 4% paraformaldehyde and postfixed in the same solution over night. […]
Aβ-ELISA: For quantitation of Aβ content in mouse brain, protein extracts of fixed brain tissue reaching from the stereotaxic coordinates intraaural 1 to intraaural −2 were prepared. […] 150 μl diluted samples or standards (Aβ40 Bachem) were incubated overnight, washed, and detected with biotinylated monoclonal mouse antibody 6H1 directed against amino acids 1-17 of human Aβ (Evotec Neurosciences GmbH) incubated at a concentration of 1 μg/ml in blocking buffer for 2 hours at 37° C., and visualised with a peroxidase reaction using tetramethylbenzidine as substrate, and detection at 450 nm. […]

transgenic SwAPP mice [4] = test: GFAP staining of reactive astrocytes (astrogliosis); type: in vivo
Experimental: Preparation of tissue: For combined Western blot analyses and immunohistochemistry, mice were deeply anesthetized and were perfused transcardially using ice-cold PBS (pH 7.4). Frontal cortices of both hemispheres were homogenized in lysis buffer containing 1% Triton X-100, 10 mM Tris, 250 mM sucrose, and 1× complete proteinase inhibitor cocktail, pH=8 (Roche, Switzerland). The remaining brain tissue was fixed over night in 4% paraformaldehyde solution at 4° C. and washed several times in PBS and embedded in paraffin for immuno-histochemistry. For combined immunocytochemistry and Aβ-ELISA, mice were perfused with 4% paraformaldehyde and postfixed in the same solution over night. The caudal parts of the brains reaching from intraaural 1 to intraaural −2 (Franklin, K. B. J, Paxinos, G. Academic Press, 1997) were dissected and prepared for Aβ ELISA. The remaining brain tissue was embedded in paraffin and then processed for immunohistochemistry. Five μm thick paraffin sections were probed with antibodies against NEP, IDE (Insulin degrading enzyme), ACE (Angiotensin converting enzyme), endopeptidase 24.15 protein, and GFAP (glial fibrillary protein) according to providers' protocols and counterstained with nuclear fast red (Fluka, Switzerland).
Prevention of amyloid formation was accompanied by reduced reactive astrocytosis: Because brain amyloidosis in SwAPP mice is accompanied by reactive astrocytosis, GFAP-reactive astrocytes were analysed in response to the Aβ42-injection protocol (FIG. 6 a-c). […] Similar activation of astrocytes in brain regions unaffected by amyloid plaque formation is a well established finding in transgenic mice that overexpress disease-causing APP mutants (Schenk D. et al., Nature 400, 173-177, 1999). It may be explained by high sensitivity of hippocampal astrocytes to unknown toxic activities related to the expression of the SwAPP transgene; these may well be independent of amyloid plaque formation.

[5] = system: insulin-degrading enzyme (IDE); test: IDE brain tissue levels by immunohistochemistry and Western blotting; type: in vivo, mice; settings: in response to Aβ42 injections
Experimental: as §3
(§4) Western-blot analysis: Protein concentration of brain extracts were determined with the Bredford protein assay and equal amounts of protein (60 μg) were loaded to each lane of 8% acrylamid gels in Laemmli buffer. […]
(§5) Role of other Aβ degrading enzymes: To determine whether other Aβ-degrading proteases were involved in preventing amyloid formation in the above described mice, brain tissue levels of insulin-degrading enzyme (IDE), a 100 kD Zn-metallo-proteinase that is a major Aβ-degrading enzyme in tissue culture (Qiu W. Q. et al., J. Biol. Chem. 273, 32730-32738, 1998; Vekrellis K. et al., J. Neurosci., 20, 1657-1665, 2000) were analysed by immunohistochemistry and Western blotting. […]

metalloprotease 24.15 = test: Metalloprotease 24.15 brain levels; type: in vivo, mice; settings: in response to Aβ injections
Experimental: as §3, §4, §5

[6] = system: angiotensin converting enzyme (ACE); test: ACE brain tissue levels; type: in vivo; settings: treated vs untreated mice, any examined time point after Aβ42 injection
Experimental: as §3, §4, §5

APP = APP levels by Western blots of protein extracts; type: in vivo; settings: Aβ42- or vehicle treated, or untreated transgenic mice
Experimental: Western-blot analysis: Protein concentration of brain extracts were determined with the Bredford protein assay and equal amounts of protein (60 μg) were loaded to each lane of 8% acrylamid gels in Laemmli buffer. After electrophoresis proteins were blotted on nitrocellulose membranes (Amersham). Membranes were probed for NEP using the monoclonal antibody 56C6 at a dilution of 1:50. Blots were stripped in a buffer containing 2% SDS, 62.5 mM Tris (pH 6.8) and 100 mM β-mercaptoethanol at 50° C. for 30 minutes. After stripping the membrane were probed sequentially with anti-Alzheimer precursor protein A4 antibody (clone 22C11, 1:1000), IDE-1 (1:800), ACE (1:200), and the polyclonal antibody to 24.15 protein (1:600). Finally, staining for actin (1:1000) was performed as a loading control. […]
as §2

PDAPP transgenic mouse = settings: cited from earlier work

| Compound | inhibition of NL-1 (NL-1 (neprilysin like 1)) | neuronal NEP immunoreactivity (NEP [1]) | NEP protein levels in brain extracts (Western blot) (NEP [2]) | thioflavin S- or 4G8-positive amyloid plaques (transgenic SwAPP mice [3]; SwAPP mice at 31 weeks of age, 20 weeks after single injection (4/4), vs untreated SwAPP mice) | plaque counts of 4G8 stained amyloid plaques (transgenic SwAPP mice [3]; SwAPP mice, 20 weeks after injection, vs untreated littermates, p≦0.05) | brain Aβ levels (ELISA, formic acid extracted total Aβ) (human Aβ) | GFAP-positive astrocytes in hippocampi (transgenic SwAPP mice [4]; Aβ42-treated SwAPP mice) | amyloid plaque-associated clusters of GFAP-positive cells (transgenic SwAPP mice [4]; SwAPP mice after Aβ42 injections) | GFAP staining of reactive astrocytes in cerebral cortices (transgenic SwAPP mice [4]; SwAPP mice, 20 weeks after injection, vs untreated SwAPP littermates) | tissue levels of IDE [5] | metalloprotease 24.15 levels (metalloprotease 24.15) | ACE levels [6] | APP levels (APP) | β-amyloid-plaque formation, neuritic dystrophy and astrogliosis (PDAPP transgenic mouse; immunisation of young animals (6 weeks of age)) | extent and progression of AD-like neuropathologies (PDAPP transgenic mouse; treatment of older animals (11 months)) |
| --- | --- | --- | --- | --- | --- | --- | --- | --- | --- | --- | --- | --- | --- | --- | --- |
| CC(C)C[C@H](NP(=O)(O)O[C@@H]1O[C@@H](C)[C@H](O)[C@@H](O)[C@H]1O)C(=O)N[C@@H](Cc1c[nH]c2ccccc12)C(=O)O [phosphoramidon] | efficiently inhibited | – | – | – | – | – | – | – | – | – | – | – | – | – | – |
| Aβ42: Fibrillar aggregated synthetic Aβ42 prepared by resuspending lyophilized Aβ42 (Bachem) in PBS, pH 7.4 by shaking for 48 hours at 37° C. | – | increased | significant increase; also recorded: significantly higher | significant reduction; also recorded: completely free | significantly reduced; also recorded: marked significant decrease | significantly reduced; also recorded: untreated control SwAPP mice (n=4) were significantly higher than in Aβ42-treated SwAPP mice | abundant | completely absent | significantly lower | no differences | unchanged | did not differ | no difference | essentially prevented | markedly reduced |
